Assays:
[1] = system: rats in chronic renal failure model; settings: cited from earlier work
mice = assay: Mice acute toxicity test (Example 7); settings: mice acute toxicity
Excerpt: (§1) Toxicity Test According to the methods described in literatures (“Guiding principles for acute toxicity test of a chemical drug”, No. [H]GPT1-1, CENTER FOR DRUG EVALUATION, SFDA; Bojun Yuan et. al., “The Preclinical Safety Evaluation and Practice of New Drug”, Military Medical Science Press, 1997: 23-36[…] Bojun Yuan et. al., “Methods and Techniques for Drug ToxicologicalTest”, Chemical Industry Press, 2008: 200-210), the preparation of levocamitine and calcium dobesilate obtained from example 2 was tested for mice acute toxicity.

[2] = system: adenine-induced mice renal failure model; assay: Pharmacodynamic test, chronic renal failure model (Example 5); assay type: in vivo, SPF grade Kunming mice; settings: for Water content of renal tissue / blood urea nitrogen (BUN) / body weight after 4 weeks / renal index / serum creatinine (Scr): 350 mg/kg once per day for 4 weeks, n=10; for values of Scr and BUN as compared with the renal failure group: 350 mg/kg, 4 weeks
Protocol: Based on intergroup consistency principle, SPF grade Kunming mice (with a body weight of about 20 to 22 g, half male and half female) were randomly divided into 5 groups (n=10) with one of them as the control group. Except for control group, 300 mg/kg (20 ml/kg·d) of adenine was administrated given to mice once per day for successive 3 days by gavage, thereby to obtain adenine-induced mice renal failure model as described in the references (see for example Pingdong Zheng et. al, “The establishment of chronic renal failure animal model with adenine, Chinese Journal of Nephrology, 1989, 5(4): 342-344; Deyu Guo et. al., “The establishment of mice model with chronic renal insufficiency”, CHINESE JOURNAL OF LABORATORY ANIMAL SCIENCE, 2001, 11(3): 142-145; and Shuling Sun et. al, “The traditional Chinese medicinal intervention and pathological observations in mice chronic renal failure model”, ZHEJIANG JOURNAL OF INTEGRATED TRADITIONAL CHINESE AND WESTERN MEDICINE, 2002, 12(4): 221-222).
Thereafter, except for the control group, based on intergroup consistency principle, the remaining 4 groups were redivided randomly into 4 groups, renal failure group, levocarnitine (350 mg/kg) group, calcium dobesilate (350 mg/kg) group, as well as levocarnitine and calcium dobesilate group (350 mg/kg) (wherein the ratio of levocamitine and calcium dobesilate is 1:1). Except for the renal failure group, mice of each group were administrated at the given dosage once per day for successive 4 weeks. Then the data for the mice of each group such as body weight, blood urea nitrogen (BUN), serum creatinine (Scr), renal index and water content of renal tissue were determined.

[3] = Mice acute toxicity test (Example 7); settings: mouse, in vivo
Excerpt: as §1

ischemic/reperfused rat = settings: cited from earlier work

Structure (SMILES): O=S(=O)([O-])c1cc(O)ccc1O.O=S(=O)([O-])c1cc(O)ccc1O.[Ca+2] [Calcium dobesilate, calcium dobesilate]
- content of thromboxane Az in the homogenate of renal cortex [1]: reduce notably
- level of Scr and BUN [1]: decreasing
- LD50 (mice): 10600 mg/kg
- Water content of renal tissue [2]: 75.9 ± 1.8%
- blood urea nitrogen (BUN) [2]: 11.8 ± 7.0 mmol/L
- body weight after 4 weeks [2]: 31.6 ± 4.6 g
- renal index [2]: 7.2 ± 0.7
- serum creatinine (Scr) [2]: 10.0 ± 9.2 µmol/L
- values of Scr and BUN as compared with the renal failure group [2]: decreased

Structure (SMILES): C[N+](C)(C)C[C@H](O)CC(=O)[O-] [Levocarnitine, (R)-3-carboxy-2-hydroxy-N,N,N-trimethyl-1-propanaminium hydroxide]
- LD50 [3]: 19200 mg/kg
- content of malonaldehyde (MDA) in renal tissue (ischemic/reperfused rat): reduce
- content of reduced glutathione (GSH) (ischemic/reperfused rat): increase
- serum creatinine (Scr) and blood urea nitrogen (BUN) (ischemic/reperfused rat): can reduce
- Water content of renal tissue [2]: 76.0 ± 2.0%
- blood urea nitrogen (BUN) [2]: 9.7 ± 5.8 mmol/L
- body weight after 4 weeks [2]: 32.3 ± 5.3 g
- renal index [2]: 7.0 ± 1.3
- serum creatinine (Scr) [2]: 21.6 ± 11.8 µmol/L
- values of Scr and BUN as compared with the renal failure group [2]: decreased

— patent publication US20130172414A1, “PHARMACEUTICAL COMPOSITION COMPRISING LEVOCARNITINE AND DOBESILATE” (TIANJIN NANKAI SHARE PHARMACEUTICAL SCIENCE & TECHNOLOGY …, priority 2010, published 2013)
